Data taken from patent US20240083853A1, “HSD17B13 INHIBITORS AND USES THEREOF” (FL2022-001, Inc., priority 2020, published 2024).

Molecular target: T1, Recombinant human HSD17B13 enzyme (Homo sapiens, UniProt Q7Z5P4)
T1 sequence (Q7Z5P4 20-300): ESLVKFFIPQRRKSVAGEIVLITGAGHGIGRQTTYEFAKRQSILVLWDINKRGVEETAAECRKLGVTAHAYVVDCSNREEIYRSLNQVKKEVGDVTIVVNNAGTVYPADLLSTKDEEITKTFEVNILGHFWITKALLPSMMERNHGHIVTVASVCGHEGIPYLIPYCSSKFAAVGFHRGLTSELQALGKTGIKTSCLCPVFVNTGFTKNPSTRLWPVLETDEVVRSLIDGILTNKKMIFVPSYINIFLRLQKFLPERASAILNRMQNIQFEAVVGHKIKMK
Assay: HSD17b13 NAD(P)H-Glo biochemical assay
Details: 50 uM estradiol, 1 mM NAD+, NAD(P)H-Glo luminescence; read-out: HSD17β13 IC50
Protocol: Example B-1: HSD17b13 NAD(P)H-Glo Biochemical Assay
Recombinant human HSD17B13 enzyme. Substrate: estradiol (Sigma β-Estradiol E8875), 100 mM in DMSO. Cofactor: NAD+ Grade I free acid (Sigma 10127965001), 20 mM in H2O. Assay buffer final concentration: 20 mM Tris pH7.4 with 0.002% Tween-20 and 0.02% BSA. Assay performed in 384 well solid bottom plate (Corning 3570). Enzymatic activity detected by NAD(P)H-Glo™ Detection System (Promega G9062).
Inhibitor compounds were serially diluted in DMSO and then further diluted in assay buffer to a 10× concentration consisting of 1% DMSO.
HSD17b13 enzyme was diluted in 1× assay buffer to the desired enzyme concentration based on the specific activity of the enzyme lot. 20 uL of diluted enzyme was added to each well along with 2.5 uL of 10× inhibitor solution. Assay plate was incubated at RT for 20 minutes, and then 2.5 uL of a 10× substrate/cofactor mix was added to each well for a final concentration of 50 uM estradiol and 1 mM NAD+. Assay plate was incubated at 37° C. for 3 hours. NAD(P)H-Glo™ Detection System reagents were prepared according to manufacturer's specifications, and 25 uL was added to each well. After incubating for 1 hour at RT, luminescence was measured.

| SMILES | IC50 |
| --- | --- |
| CC(C)C1CCN(c2ccc(-n3ncc4cc(F)c(O)c(F)c43)cc2)CC1 [Compound 20.9, 5,7-Difluoro-1-(4-(4-isopropylpiperidin-1-yl)phenyl)-1H-indazol-6-ol] | < 0.1 µM |
| N#Cc1ccc(-c2ccc(-n3ncc4cc(F)c(O)c(F)c43)cc2)cc1 [Compound 13.39, 4′-(5,7-Difluoro-6-hydroxy-1H-indazol-1-yl)-[1,1′-biphenyl]-4-carbonitrile] | < 0.1 µM |
| N#Cc1ccccc1-c1ccc(-n2ncc3cc(F)c(O)cc32)cc1 [Compound 13.16, 4′-(5-Fluoro-6-hydroxy-1H-indazol-1-yl)-[1,1′-biphenyl]-2-carbonitrile] | 0.1 to 1 µM |
| Oc1ccc(-c2ccc(-n3ncc4cc(F)c(O)cc43)cc2)cc1 [Compound 2.1, 5-Fluoro-1-(4′-hydroxy-[1,1′-biphenyl]-4-yl)-1H-indazol-6-ol] | 0.1 to 1 µM |
| Oc1cccc(-c2ccc(-n3nc(F)c4cc(F)c(O)c(F)c43)cc2)c1 [Compound 5.4, 3,5,7-Trifluoro-1-(3′-hydroxy-[1,1′-biphenyl]-4-yl)-1H-indazol-6-ol] | 0.1 to 1 µM |
| Oc1c(F)cc2cnn(-c3ccc(-c4ccc(Cl)cc4)nc3)c2c1F [Compound 18.2, 1-(6-(4-Chlorophenyl)pyridin-3-yl)-5,7-difluoro-1H-indazol-6-ol] | < 0.1 µM |
| CC1(C)CCN(c2ccc(-n3ncc4c(C#N)c(F)c(O)cc43)cc2)CC1 [Compound 7.1, 1-(4-(4,4-Dimethylpiperidin-1-yl)phenyl)-5-fluoro-6-hydroxy-1H-indazole-4-carbonitrile] | 0.1 to 1 µM |
| Oc1c(F)cc2cnn(-c3ccc(-c4cn[nH]c4)cc3)c2c1F [Compound 14.1, 1-(4-(1H-Pyrazol-4-yl)phenyl)-5,7-difluoro-1H-indazol-6-ol] | 0.1 to 1 µM |
| Cc1ccccc1-c1ccc(-n2ncc3cc(F)c(O)cc32)cc1 [Compound 13.9, 5-Fluoro-1-(2′-methyl-[1,1′-biphenyl]-4-yl)-1H-indazol-6-ol] | 0.1 to 1 µM |
| CC1(C)CN(c2ccc(-n3ncc4cc(F)c(O)c(F)c43)cc2)CC(C)(C)O1 [Compound 20.12, 5,7-Difluoro-1-(4-(2,2,6,6-tetramethylmorpholino)phenyl)-1H-indazol-6-ol] | < 0.1 µM |
| CC1(C)CCN(c2ccc(-n3ccc4cc(F)c(O)c(F)c43)cc2)CC1 [Compound 6.2, 1-(4-(4,4-Dimethylpiperidin-1-yl)phenyl)-5,7-difluoro-1H-indol-6-ol] | 0.1 to 1 µM |
| CC1(C)CCN(c2ccc(-n3ncc4cc(F)c(O)c(F)c43)cc2)CC1 [Compound 23, 1-(4-(4,4-Dimethylpiperidin-1-yl)phenyl)-5,7-difluoro-1H-indazol-6-ol] | < 0.1 µM |
| NS(=O)(=O)c1cccc(-c2ccc(-n3ncc4cc(F)c(O)cc43)cc2)c1 [Compound 13.37, 4′-(5-Fluoro-6-hydroxy-1H-indazol-1-yl)-[1,1′-biphenyl]-3-sulfonamide] | 0.1 to 1 µM |
| Oc1ccc(-c2ccc(-n3ncc4ccc(O)c(F)c43)cc2)cc1 [Compound 2.4, 7-Fluoro-1-(4′-hydroxy-[1,1′-biphenyl]-4-yl)-1H-indazol-6-ol] | 0.1 to 1 µM |
| Oc1cccc(-c2ccc(-n3nc(F)c4cc(F)c(O)cc43)cc2)c1 [Compound 5.3, 3,5-Difluoro-1-(3′-hydroxy-[1,1′-biphenyl]-4-yl)-1H-indazol-6-ol] | 0.1 to 1 µM |
| Oc1ccc2cnn(-c3ccc(-c4ccc(O)c(Cl)c4)cc3)c2c1 [Compound 18.1, 1-(3′-Chloro-4′-hydroxy-[1,1′-biphenyl]-4-yl)-1H-indazol-6-ol] | 0.1 to 1 µM |
| CC1(C)CCN(c2ccc(-n3c(=O)sc4cc(F)c(O)c(F)c43)cc2)CC1 [Compound 7.3, 3-(4-(4,4-Dimethylpiperidin-1-yl)phenyl)-4,6-difluoro-5-hydroxybenzo[d]thiazol-2(3H)-one] | 0.1 to 1 µM |
| Oc1c(F)cc2cnn(-c3ccc(-c4ccc(Cl)cc4)cn3)c2c1F [Compound 18.3, 1-(5-(4-Chlorophenyl)pyridin-2-yl)-5,7-difluoro-1H-indazol-6-ol] | < 0.1 µM |

The next lines start with the values.

| IC50 | SMILES |
| --- | --- |
| 0.1 to 1 µM | CC1(O)CCN(c2ccc(-n3ncc4cc(F)c(O)c(F)c43)cc2)CC1 [Compound 23.22, 5,7-Difluoro-1-(4-(4-hydroxy-4-methylpiperidin-1-yl)phenyl)-1H-indazol-6-ol] |
| 0.1 to 1 µM | Oc1c(F)cc2cnn(-c3ccc(N4CCC(O)CC4)cc3)c2c1F [Compound 23.1, 5,7-Difluoro-1-(4-(4-hydroxypiperidin-1-yl)phenyl)-1H-indazol-6-ol] |
| < 0.1 µM | Oc1c(F)cc2cnn(-c3ccc(N4CCC5(CC4)CC5)cc3)c2c1F [Compound 23.23, 1-(4-(6-Azaspiro[2.5]octan-6-yl)phenyl)-5,7-difluoro-1H-indazol-6-ol] |
| < 0.1 µM | Oc1c(F)cc2cnn(-c3ccc(C4CCOCC4)cc3)c2c1F [Compound 27.6, 5,7-Difluoro-1-(4-(tetrahydro-2H-pyran-4-yl)phenyl)-1H-indazol-6-ol] |
| 0.1 to 1 µM | CC1CN(c2ccc(-n3ncc4cc(F)c(O)c(F)c43)cc2)CC(C)[S+]1[O-] (centres unmarked) [Compound 32.3, 4-(4-(5,7-Difluoro-6-hydroxy-1H-indazol-1-yl)phenyl)-2,6-dimethylthiomorpholine 1-oxide] |
| 0.1 to 1 µM | Oc1c(F)cc2nnn(-c3ccc(N4CC5(CCOCC5)C4)nc3)c2c1F [Compound 26.12, 1-(6-(7-Oxa-2-azaspiro[3.5]nonan-2-yl)pyridin-3-yl)-5,7-difluoro-1H-benzo[d][1,2,3]triazol-6-ol] |
| < 0.1 µM | COC1CCN(c2ccc(-n3ncc4cc(F)c(O)c(F)c43)cc2)C1 (centres unmarked) [Compound 22.5, 5,7-Difluoro-1-(4-(3-methoxypyrrolidin-1-yl)phenyl)-1H-indazol-6-ol] |
| < 0.1 µM | Oc1c(F)cc2cnn(-c3ccc(N4CCCC4)cc3)c2c1F [Compound 23.10, 5,7-Difluoro-1-(4-(pyrrolidin-1-yl)phenyl)-1H-indazol-6-ol] |
| < 0.1 µM | Oc1c(F)cc2cnn(-c3ccc(C4CCCCC4)cc3)c2c1F [Compound 27.5, 1-(4-Cyclohexylphenyl)-5,7-difluoro-1H-indazol-6-ol] |
| < 0.1 µM | CC1(C#N)CN(c2ccc(-n3ncc4cc(F)c(O)c(F)c43)cc2)C1 [Compound 23.27, 1-(4-(5,7-Difluoro-6-hydroxy-1H-indazol-1-yl)phenyl)-3-methylazetidine-3-carbonitrile] |
| < 0.1 µM | CC1(C)CCN(c2ccc(-n3cnc4cc(F)c(O)c(F)c43)cc2)CC1 [Compound 21.5, 1-(4-(4,4-Dimethylpiperidin-1-yl)phenyl)-5,7-difluoro-1H-benzo[d]imidazol-6-ol] |
| 0.1 to 1 µM | Oc1cc2c(nnn2-c2ccc(N3CC4(CCOCC4)C3)cc2)c(F)c1F [Compound 40.3, 1-(4-(7-oxa-2-azaspiro[3.5]nonan-2-yl)phenyl)-4,5-difluoro-1H-benzo[d][1,2,3]triazol-6-ol] |
| < 0.1 µM | Oc1c(F)cc2cnn(-c3ccc(N4CCC5(CC4)COC5)cc3)c2c1F [Compound 23.25, 1-(4-(2-Oxa-7-azaspiro[3.5]nonan-7-yl)phenyl)-5,7-difluoro-1H-indazol-6-ol] |
| < 0.1 µM | CC1(C)CCCN(c2ccc(-n3ncc4cc(F)c(O)c(F)c43)cc2)C1 [Compound 23.19, 1-(4-(3,3-Dimethylpiperidin-1-yl)phenyl)-5,7-difluoro-1H-indazol-6-ol] |
| < 0.1 µM | CC(C)C1CN(c2ccc(-n3ncc4cc(F)c(O)c(F)c43)cc2)C1 [Compound 24.3, 5,7-Difluoro-1-(4-(3-isopropylazetidin-1-yl)phenyl)-1H-indazol-6-ol] |
| 0.1 to 1 µM | Oc1c(F)cc2nnn(-c3ccc(N4CCO[C@H](c5ccccc5)C4)cc3)c2c1F [Compound 26.27, (R)-5,7-Difluoro-1-(4-(2-phenylmorpholino)phenyl)-1H-benzo[d][1,2,3]triazol-6-ol] |
| < 0.1 µM | CCC1(C)CN(c2ccc(-n3ncc4cc(F)c(O)c(F)c43)cc2)C1 [Compound 24.4, 1-(4-(3-Ethyl-3-methylazetidin-1-yl)phenyl)-5,7-difluoro-1H-indazol-6-ol] |

Same assay, conditions: 3 h; at 10 uM compound; read-out: HSD17β13 % at 10 uM

| inhibition at 10 µM | SMILES |
| --- | --- |
| < 20% | CC1(C)CCN(c2ccc(-n3ncc4cnc(O)c(F)c43)cc2)CC1 [Compound 25.4, 1-(4-(4,4-Dimethylpiperidin-1-yl)phenyl)-7-fluoro-1H-pyrazolo[4,3-c]pyridin-6-ol] |
| 35% | Cc1nc2cc(F)c(O)c(F)c2n1-c1ccc(N2CCC(C)(C)CC2)cc1 [Compound 21.8, 1-(4-(4,4-Dimethylpiperidin-1-yl)phenyl)-5,7-difluoro-2-methyl-1H-benzo[d]imidazol-6-ol] |

Same assay, conditions: 3 h; at 30 uM compound; read-out: HSD17β13 % at 30 uM

| inhibition at 30 µM | SMILES |
| --- | --- |
| 40% | Oc1cc2c(cnn2-c2ccc(-c3ccncc3)cc2)cc1F [Compound 13.15, 5-Fluoro-1-(4-(pyridin-4-yl)phenyl)-1H-indazol-6-ol] |
